Consider one sequence from patent US20220088115A1, “PHARMACEUTICAL COMPOSITION, COMPRISING INHIBITORY PEPTIDE AGAINST FAS SIGNALING, FOR PREVENTION OR TREATMENT OF OBESITY, FATTY LIVER, OR STEATOHEPATITIS” (SIGNET BIOTECH INC., priority 2018, published 2022).

The test system of test [1] is 3T3L1 cell line. Put plainly: Apoptosis level in 3T3L1 cell line treated with FasL and peptide (annexin V flow cytometry). As to conditions: differentiated 3T3L1 treated with Fas ligand and peptide. Format: cell-based, murine. On the procedure:
The 3T3L1 cell line was cultured in a DMEM culture medium containing 10% FBS, 1% penicillin, 1% streptomycin, and 25 mM glucose. The 3T3L1 cell line was aliquoted into the above DMEM culture solution at a concentration of 2×10^5 cells/ml to induce adipocyte maturation for 3 days, and then replaced with a culture solution containing insulin to induce adipocyte maturation again for 3 days. Thereafter, the 3T3L1 cell line was further cultured in the above DMEM culture solution for 2 days to achieve complete maturation of adipocytes.
The 3T3L1 cell line was treated with a Fas ligand (FasL) at a concentration of 500 ng/ml to induce apoptosis, and FBP signal blocking peptides (FBP-8. FBP-A and FBP-7) and CtrFBP bound to Alexa647 were treated, respectively. After 4 hours of peptide treatment, cells were washed with DPBS and treated with FITC-bound annexin V (BD Pharmingen) to analyze the apoptosis inhibitory effect by a flow cytometer.

Test [2] addresses T1, Fas (Mus musculus, UniProt P25446).
T1 construct: from tissue; host or cells: liver and white adipose tissue sections of high-fat-diet C57BL/6 mice
T1 sequence (P25446 22-327): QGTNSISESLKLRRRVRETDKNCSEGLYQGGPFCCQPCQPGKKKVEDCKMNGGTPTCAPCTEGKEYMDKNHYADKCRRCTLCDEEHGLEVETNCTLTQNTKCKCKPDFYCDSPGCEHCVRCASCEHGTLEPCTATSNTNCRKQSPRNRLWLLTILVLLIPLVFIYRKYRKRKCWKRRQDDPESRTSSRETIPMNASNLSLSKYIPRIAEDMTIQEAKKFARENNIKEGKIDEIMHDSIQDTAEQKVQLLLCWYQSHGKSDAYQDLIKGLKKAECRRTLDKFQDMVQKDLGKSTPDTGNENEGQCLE
Put plainly: Binding of fluorescently labeled peptide to Fas in liver and white adipose tissue sections of HFD mice. As to conditions: sections from high fat diet (HFD) group. On the procedure:
After the animal experiment was completed, mice were sacrificed to isolate liver tissues and white adipose tissues and prepare tissue sections. The prepared liver tissue and white adipose tissue sections were treated with an antigen retrieval buffer at 95° C. for 25 minutes and then cooled at room temperature. Thereafter, the tissue sections were treated with Tris Based Saline+Tween20 (TBST) containing 1% bovine serum albumin (BSA), 10% goat serum and 0.05% Tween 20 to undergo a blocking process, and were reacted with a Fas receptor-specific primary antibody at 4° C. for 18 hours. Thereafter, tissue sections were washed with TBST and reacted with a FITC-bound secondary antibody at room temperature for 2 hours.
In addition, in order to examine the tissue-binding ability of the peptide, the peptide to which Alexa 488 was bound was reacted with the primary antibody at 4° C. for 18 hours. The nuclei were stained with Hoechst 33342 (GE Healthcare), washed with TBST, and then confirmed.
The fluorescence signal of each tissue section was analyzed under a TCS-SP5 confocal microscope (Leica, Germany).

For test [3], the system named is obesity model mice. The test is described as follows: Crown-like structure (CLS) in white adipose tissues, obesity model mice, intravenous FBP-8. Format: in vivo, C57BL/6 mice. As to conditions: compared to negative control (CtrFBP). The protocol: (§1) All animal experiments performed for the present invention were approved by the Institutional Animal Care and Use Committee of Hanyang University. […] Thereafter, depending on the experimental group, 60 μg/one time of FBP8 were administered by intravenous injection twice a week for a total of 5 weeks (FIG. 13), or FBP7 was administered by subcutaneous injection twice a day.
(§2) Liver tissue and white adipose tissue sections were stained with hematoxylin & eosin and then histologically analyzed under an optical microscope.

The test system of test [4] is obesity model mice. The test is described as follows: Glucose tolerance test (GTT) and insulin tolerance test (ITT), obesity model mice, intravenous FBP-8. The test is classed as in vivo, C57BL/6 mice. On the procedure: as §1
For a glucose intolerance analysis, a dose of 2 g/kg of glucose was injected by intraperitoneal injection into each experimental group maintained in a fasting state for 12 hours, and blood glucose levels were measured after 30, 60 and 120 minutes by Accu-check (Roche, USA).
Insulin resistance was analyzed by measuring blood glucose levels 30 minutes, 60 minutes and 120 minutes after a dose of 0.75 U/kg of insulin was injected by intraperitoneal injection into each experimental group maintained in a fasting state for 4 hours.

Test [5] relates to obesity model mice. The test is described as follows: Liver morphology, weight and histological analysis, obesity model mice, intravenous FBP-8. The test is classed as in vivo, C57BL/6 mice. The protocol: as §1, §2
The mark [6] stands for this setting: compared to negative control (CtrFBP).

“YCDEHFCY (Fas binding peptide-8 (FBP-8))” displayed an apoptosis level in test [1] of 14±2.98%. Further, the “co-staining with Fas-specific antibody in liver and white adipose tissue sections” value in test [2] is “the stained sites coincided”. The “crown-like structure (CLS) in white adipose tissues” value in test [3] is given as “remarkably reduced”. Further, in test [4], the “blood glucose changes / glucose metabolism in GTT and ITT” value was “improved glucose metabolism”. The “damage to the liver tissue (histological analysis)” value in test [5] is “inhibited”. In addition, in test [5] (setting [6]), the “size of the liver tissue” value was “smaller” and the “weight of the liver tissue” value is recorded as “lighter”.
